Results: ChEMBL document CHEMBL4819021, “Paratrimerins J-Y, Dimeric Coumarins Isolated from the Stems of Paramignya trimera” (J Nat Prod, 2021)
Activity calls are given as the source filed them.

How the values were obtained:
Format in all cases: functional, cell-based
[1] = test system: MCF7; experiment: Cytotoxicity against human MCF7 cells assessed as reduction in cell viability at 40 uM measured after 72 hrs by MTS assay
[2] = test system: SW-620; experiment: Cytotoxicity against human SW-620 cells assessed as reduction in cell viability at 40 uM measured after 72 hrs by MTS assay
[3] = test system: HCC38; experiment: Cytotoxicity against human HCC38 cells assessed as reduction in cell viability at 40 uM measured after 72 hrs by MTS assay
[4] = test system: HCC70; experiment: Cytotoxicity against human HCC70 cells assessed as reduction in cell viability at 40 uM measured after 72 hrs by MTS assay
[5] = test system: HCC1428; experiment: Cytotoxicity against human HCC1428 cells assessed as reduction in cell viability at 40 uM measured after 72 hrs by MTS assay
[6] = test system: COLO 205; experiment: Cytotoxicity against human COLO 205 cells assessed as reduction in cell viability at 40 uM measured after 72 hrs by MTS assay
[7] = test system: MDA-MB-468; experiment: Cytotoxicity against human MDA-MB-468 cells assessed as reduction in cell viability at 40 uM measured after 72 hrs by MTS assay
[8] = test system: RKO; experiment: Cytotoxicity against human RKO cells assessed as reduction in cell viability at 40 uM measured after 72 hrs by MTS assay
[9] = test system: SK-HEP1; experiment: Cytotoxicity against human SK-HEP1 cells assessed as reduction in cell viability at 40 uM measured after 72 hrs by MTS assay
[10] = test system: BT-549; experiment: Cytotoxicity against human BT-549 cells assessed as reduction in cell viability at 40 uM measured after 72 hrs by MTS assay
[11] = test system: Hs-578T; experiment: Cytotoxicity against human Hs-578T cells assessed as reduction in cell viability at 40 uM measured after 72 hrs by MTS assay
[12] = test system: KM12; experiment: Cytotoxicity against human KM12 cells assessed as reduction in cell viability at 40 uM measured after 72 hrs by MTS assay
[13] = test system: HCT-116; experiment: Cytotoxicity against human HCT-116 cells assessed as reduction in cell viability at 40 uM measured after 72 hrs by MTS assay
[14] = test system: SK-BR-3; experiment: Cytotoxicity against human SK-BR-3 cells assessed as reduction in cell viability at 40 uM measured after 72 hrs by MTS assay
[15] = test system: HCT-8; experiment: Cytotoxicity against human HCT-8 cells assessed as reduction in cell viability at 40 uM measured after 72 hrs by MTS assay
[16] = test system: T47D; experiment: Cytotoxicity against human T47D cells assessed as reduction in cell viability at 40 uM measured after 72 hrs by MTS assay
[17] = test system: SW480; experiment: Cytotoxicity against human SW480 cells assessed as reduction in cell viability at 40 uM measured after 72 hrs by MTS assay
[18] = test system: MDA-MB-231; experiment: Cytotoxicity against human MDA-MB-231 cells assessed as reduction in cell viability at 40 uM measured after 72 hrs by MTS assay
[19] = test system: MDA-MB-435; experiment: Cytotoxicity against human MDA-MB-435 cells assessed as reduction in cell viability at 40 uM measured after 72 hrs by MTS assay

Measured: Activity

CC1=C[C@@H](c2cc3ccc(=O)oc3cc2O[C@@H]2O[C@H](CO[C@@H]3OC[C@](O)(CO)[C@H]3O)[C@@H](O)[C@H](O)[C@H]2O)[C@@](C)(/C=C/c2cc3ccc(=O)oc3cc2O[C@@H]2O[C@H](CO)[C@@H](O)[C@H](O)[C@H]2O)CC1
inactive: all assays above

CC1=C[C@H](c2cc3ccc(=O)oc3cc2O[C@@H]2O[C@H](COC3OC[C@@H](O)[C@H](O)[C@H]3O)[C@@H](O)[C@H](O)[C@H]2O)[C@](C)(/C=C/c2cc3ccc(=O)oc3cc2O[C@@H]2O[C@H](CO)[C@@H](O)[C@H](O)[C@H]2O)CC1 (stereo partly specified)
inactive: all assays above

CC1=C[C@H](c2cc3ccc(=O)oc3cc2O[C@@H]2O[C@H](COC3OC[C@@H](O)[C@H](O)[C@H]3O)[C@@H](O)[C@H](O)[C@H]2O)[C@@](C)(/C=C/c2cc3ccc(=O)oc3cc2O[C@@H]2O[C@H](CO)[C@@H](O)[C@H](O)[C@H]2O)CC1 (stereo partly specified)
inactive: all assays above

CC1=C[C@@H](c2cc3ccc(=O)oc3cc2O[C@@H]2O[C@H](COC3OC[C@@H](O)[C@H](O)[C@H]3O)[C@@H](O)[C@H](O)[C@H]2O)[C@@](C)(/C=C/c2cc3ccc(=O)oc3cc2O[C@@H]2O[C@H](CO)[C@@H](O)[C@H](O)[C@H]2O)CC1 (stereo partly specified)
inactive: all assays above

CC1=C[C@@H](c2cc3ccc(=O)oc3cc2O[C@@H]2O[C@H](CO)[C@@H](O)[C@H](O)[C@H]2O)[C@@](C)(/C=C/c2cc3ccc(=O)oc3cc2O[C@@H]2O[C@H](CO)[C@@H](O)[C@H](O)[C@H]2O)CC1
inactive: all assays above

CC1=C[C@@H](c2cc3ccc(=O)oc3cc2O[C@@H]2O[C@H](CO)[C@@H](O)[C@H](O)[C@H]2O)[C@@](C)(/C=C/c2cc3ccc(=O)oc3cc2O[C@@H]2O[C@H](COC3OC[C@@H](O)[C@H](O)[C@H]3O)[C@@H](O)[C@H](O)[C@H]2O)CC1 (stereo partly specified)
inactive: all assays above

CC1=C[C@@H](c2cc3ccc(=O)oc3cc2O[C@@H]2O[C@H](COC3OC[C@@H](O)[C@H](O)[C@H]3O)[C@@H](O)[C@H](O)[C@H]2O)[C@@](C)(/C=C/c2cc3ccc(=O)oc3cc2O[C@@H]2O[C@H](COC3OC[C@@H](O)[C@H](O)[C@H]3O)[C@@H](O)[C@H](O)[C@H]2O)CC1 (stereo partly specified)
inactive: all assays above

CC1=C[C@@H](c2cc3ccc(=O)oc3cc2O[C@@H]2O[C@H](CO)[C@@H](O)[C@H](O)[C@H]2O)[C@@](C)(/C=C/c2cc3ccc(=O)oc3cc2O[C@@H]2O[C@H](CO[C@@H]3OC[C@](O)(CO)[C@H]3O)[C@@H](O)[C@H](O)[C@H]2O)CC1
inactive: all assays above

CC1=C[C@H](c2cc3ccc(=O)oc3cc2O[C@@H]2O[C@H](COC3OC[C@@H](O)[C@H](O)[C@H]3O)[C@@H](O)[C@H](O)[C@H]2O)[C@](C)(/C=C/c2cc3ccc(=O)oc3cc2O[C@@H]2O[C@H](COC3OC[C@@H](O)[C@H](O)[C@H]3O)[C@@H](O)[C@H](O)[C@H]2O)CC1 (stereo partly specified)
inactive: all assays above
